Where two headings read alike, the source gives them in different places.
Legend:
[1] = reported in literature (Hirota M. et al., 1979); cited from earlier work
Epstein-Barr virus = conditions: reported in literature (Hirota M. et al., 1979); cited from earlier work
NK92 cells = assay type: cell-based, human

Which piscicidal effects [1] does the source give for `CCCCCCCCCCCCCCCC(=O)O[C@@H]1[C@@H](C)[C@@]2(O)[C@@H](C=C(CO)C[C@]3(O)C(=O)C(C)=C[C@@H]23)[C@H]2[C@]1(OC(C)=O)[C@]2(C)CO` [Compound 4, 12-O-hexadecanoyl-16-hydroxyphorbol-13-acetate] here?
The piscicidal effects was “piscicidal effects”.

What about the Epstein-Barr virus activation (Epstein-Barr virus) of the same molecule?
Its Epstein-Barr virus activation is “Epstein-Barr virus activation”.

With `CCCCCCCCCCCCCCCC(=O)O[C@@H]1[C@@H](C)[C@@]2(O)[C@@H](C(=O)C(CO)=C[C@]3(O)C(=O)C(C)=C[C@@H]23)[C@H]2[C@]1(OC(C)=O)[C@@]2(C)CO` [Compound 1, 12-O-hexadecanoyl-7-oxo-5-ene-16-hydroxyphorbol-13-acetate] as the molecule, how does the “activity for inducing IFN-γ production” value (NK92 cells; 40 nM, FIG. 8) read?
Its value is “high activity for inducing IFN-γ production”.

With `CCCCCCCCCCCCCCCC(=O)OC1C(C)C2(O)C(C(=O)C(CO)=CC3(O)C(=O)C(C)=CC32)C2C(C)(C)C12OC(C)=O` (centres unmarked) [Compound 2, 12-O-hexadecanoyl-7-oxo-5-ene-phorbol-13-acetate] as the molecule, how does the “activity for inducing IFN-γ production” value (NK92 cells; 1.6 μM, FIG. 7) read?
Its value is “had activity for inducing IFN-γ production”.

With `CCCCCCCCCCCCCCCC(=O)O[C@@H]1[C@@H](C)[C@]2(O)[C@@H]3C=C(C)C(=O)[C@@H]3CC(CO)=C[C@H]2[C@H]2[C@]1(OC(C)=O)[C@@]2(C)CO` [Compound 5, 12-O-hexadecanoyl-4-deoxy-4α-16-hydroxyphorbol-13-acetate] as the molecule, how does the “activity for inducing IFN-γ production” value (NK92 cells; 8 μM, FIG. 7) read?
The value was “had activity for inducing IFN-γ production”.
